According to patent US10071158B2, “Combination of the application of antibodies for immunostimulation together with glucocorticoids” (Lindis Biotech GmbH, priority 2005, dated 2018):
Entries after “also recorded” stand apart in the source; their conditions may differ.

Assays:
[1] = test system: mononuclear cells of the peripheral blood (PBMC); assay: Release of IL-6 by PBMC after stimulation with anti-EpCAM x anti-CD3 antibody without/with HCT8 tumour cells (ELISA); format: cell-based, human; conditions: antibody-stimulated PBMC with HCT8; dexamethasone 0.01 μg/ml to 10 μg/ml (FIG. 1B)
Method: FIG. 1A represents the release of IL-6, the IL-6 concentration in pg/ml being plotted on the y-axis. On the x-axis the respective stimulation of the PBMC has been plotted, with unstimulated PBMC serving by way of control (bar “PBMC”). In this connection, E signifies in each instance the stimulation with 100 μg/ml trifunctional bispecific antibody with the specificity anti-EpCAM x anti-CD3. […] In the experiment according to FIG. 1A the release of IL-6 from PBMC is investigated after stimulation without contact with EpCAM-positive tumour cells (=target cells). The stimulation without EpCAM-positive tumour cells corresponds to the non-specific release of cytokine, which is independent of the antigen binding. Release is accordingly effected systemically by the totality of the PBMC.
This procedure of stimulation with EpCAM-positive tumour cells corresponds to the situation of the release of IL-6 by the PBMC at the site of antigen binding. […] In the clinical use of the immunostimulating antibody together with the glucocorticoid the high quantity of IL-6 is released only by a few PBMC that are directly involved in the specific action. […]
(§1) FIGS. 14 to 16 show graphic representations of the results of the release of various cytokines in tumour patients by PBMC. […] The release of the same cytokines was measured likewise. […]

[2] = after i.v. injection; cited from earlier work
[3] = test system: mononuclear cells of the peripheral blood (PBMC); assay: Release of IFN-γ by PBMC after stimulation with anti-EpCAM x anti-CD3 antibody without/with HCT8 tumour cells (ELISA); format: cell-based, human; conditions: dexamethasone 0.1 μg/ml
Method: Mononuclear cells were extracted from the peripheral blood of a healthy volunteer by means of centrifugation over Ficoll (density 1.068 g/cm^3). To this end, venous heparinised blood was stratified over Ficoll and centrifuged at 2000 rpm for 20 min. The cell layer located above the Ficoll was pipetted off after centrifugation and was washed with PBS.
For the purpose of stimulation, the PBMC were used at a concentration of 1×10^6/ml. The stimulation of the PBMC was effected with an intact trifunctional bispecific antibody either of the specificity anti-EpCAM x anti-CD3 at a concentration of 100 μg/ml or of the specificity anti-HER2/neu x anti-CD3 at a concentration of 1 mg/ml. The stimulation was carried out for 24 h by incubation at 37 ° C. The stimulation was effected in each instance without tumour cells or in the presence of 5×10^4 HCT8 tumour cells (relative to ATCC; EpCAM-positive) per ml.
After the stimulation the determination of the concentrations of the cytokines IL-6, IL-10, TNF-α and IFN-γ was undertaken in the supernatant on plates with 24 recesses in each instance by means of an ELISA. In each instance duplicate measurements were carried out. The ELISAs were undertaken by means of standardised kits produced by R&D Systems, in accordance with the manufacturer's instructions.

[4] = test system: mononuclear cells of the peripheral blood (PBMC); assay: Release of TNF-α by PBMC after stimulation with anti-EpCAM x anti-CD3 antibody without/with HCT8 tumour cells (ELISA); format: cell-based, human; conditions: without HCT8; dexamethasone 0.1 μg/ml (FIG. 2C)
Text: FIG. 2A-2C represents in diagrams the results of the release of tumour necrosis factor α (TNF-α) after stimulation with trifunctional bispecific antibody of the specificity anti-EpCAM x anti-CD3 without and in the presence of EpCAM-positive tumour cells.
This stimulation without target cells corresponds, in turn, as already stated with respect to FIG. 1A, to the systemic, non-specific release of cytokine, which arises independently of the antibody/antigen interaction. This systemic release of TNF-α is effected by the totality of the PBMC population. […]
FIG. 2B represents, in a diagram similar to FIG. 1B, the release of TNF-α from PBMC after antibody stimulation with contact with EpCAM-positive tumour cells, the TNF-α concentration in pg/ml being plotted, here too, on the y-axis. […] In the case of stimulation with contact with EpCAM-positive tumour cells, in comparison with the stimulation without contact with target cells, in connection with the release of TNF-α absolutely higher values are also measured, which, however, as already stated above with respect to the release of IL-6 in connection with FIG. 1B, has its origin in the specific immunological action at the site of the antibody/antigen interaction. […]
as §1

HCT8 tumour cells [5] = assay: Two-hour cytotoxicity assay with fluorescence-marked (BCECF-AM) HCT8 tumour cells, stimulated PBMC (FIG. 5); format: cell-based, human; design: effect on specific percentage cytotoxicity of stimulated PBMC: dose or concentration left out as unconfirmed
Method: FIG. 5A-5D represents in diagrams the results of the measurement of the specific percentage cytotoxicity, which was determined in a two-hour cytotoxicity assay with fluorescence-marked HCT8 tumour cells. In FIGS. 5A to 5D the specific percentage cytotoxicity against HCT8 has been plotted as a function of the ratio of effector cells to target cells (E/T), the cytotoxicity test having been carried out in each instance in the case of a ratio of the effector cells to the target cells of 40:1, 20:1, 10:1, 5:1 and 2.5:1.
With the aid of a cytotoxicity test the influence of glucocorticoid on the T-cell toxicity was investigated. The extraction of the PBMC and the stimulation thereof were carried out in accordance with the above Example 1.
The measurement of cytotoxicity was undertaken with the aid of a fluorescence test using the dyestuff BCECF-AM. The measurement was undertaken by means of 2 h release technology corresponding to the procedure in Kolber et al. (1988) J. Immunol. Meth. 108: 255-264.

HCT8 tumour cells [6] = assay: Cytotoxicity assay with fluorescence-marked HCT8 tumour cells, PBMC of healthy test subjects and tumour patients (FIG. 10); format: cell-based, human
Method: FIGS. 10A to 10C represent the mean values of the measurements carried out in respect of three healthy test subjects, whereas FIG. 10D represents the mean values of the measurements carried out in respect of six patients with gastrointestinal carcinoma. In the experiments a stimulation was effected with trifunctional bispecific antibodies with the specificity anti-EpCAM x anti-CD3 at various concentrations amounting to 10 ng/ml, 100 ng/ml and 1000 ng/ml. The respective concentration of the antibody that has been used is specified in FIGS. 10A to 10D. The concentration of the PBMC amounted to 10^6 cells/ml, that of the HCT8 cells amounted to 5×10^4 cells/ml. […] On the y-axis the percentage cytotoxicity has been plotted; on the x-axis the respective experimental assay of the PBMC has been plotted, with unstimulated PBMC serving by way of control (PBMC).

Structure (SMILES): C[C@@H]1C[C@H]2[C@@H]3CCC4=CC(=O)C=C[C@]4(C)[C@@]3(F)[C@@H](O)C[C@]2(C)[C@@]1(O)C(=O)CO [dexamethasone]
- release of IL-6 in the supernatant [1]: above 5000 pg/ml
- maximum plasma concentrations attained [2]: within a few minutes
- release of IFN-γ [3]: under 3000 pg/ml
- non-specific secretion of TNF-α, % of value with antibody without dexamethasone [4]: ~20%
- effect on the cytotoxicity of stimulated PBMC (HCT8 tumour cells [5]; dexamethasone 0.01 μg/ml): no effect
- percentage cytotoxicity (HCT8 tumour cells [5]; dexamethasone 0.1 μg/ml to 10 μg/ml, stimulation in the presence of HCT8, E/T 40:1): maintained constant at a high level
- inhibition of the specific percentage cytotoxicity (HCT8 tumour cells [5]; dexamethasone 0.1 μg/ml, with or without HCT8 during stimulation (FIG. 5B)): about 50 percentage points
- inhibition of the percentage specific cytotoxicity (HCT8 tumour cells [5]; dexamethasone 1 μg/ml, E/T 20:1, stimulation in the absence of HCT8): distinctly greater inhibition
- inhibition of the specific percentage cytotoxicity compared with 0.1 μg/ml (HCT8 tumour cells [5]; dexamethasone 1 μg/ml, stimulation in the presence of HCT8 (FIG. 5C)): roughly the same level
- cytotoxicity values in relation to lower dexamethasone concentrations (HCT8 tumour cells [5]; dexamethasone 10 μg/ml, stimulation in the absence of HCT8): declined further
- percentage cytotoxicity (HCT8 tumour cells [5]; dexamethasone 10 μg/ml, stimulation in the presence of HCT8, E/T 20:1 (FIG. 5D)): 30%
- specific percentage cytotoxicity (HCT8 tumour cells [5]; dexamethasone 10 μg/ml, stimulation in the presence of HCT8, E/T twice as large (40:1)): about 60%
- effect on specific percentage cytotoxicity of stimulated PBMC (HCT8 tumour cells [5]; dexamethasone (FIG. 5A)): no effect; also recorded: no inhibition
- effect on cytotoxicity (HCT8 tumour cells [5]; dexamethasone starting from 0.1 μg/ml, independent of HCT8 during stimulation): significant reducing; also recorded: distinct reducing
- percentage cytotoxicity as a function of dexamethasone concentration (HCT8 tumour cells [5]; stimulation of PBMC without HCT8): declines further
- inhibition of the specific percentage cytotoxicity (HCT8 tumour cells [6]; antibody 10 ng/ml, no contact with HCT8, dexamethasone, healthy test subjects): about 5 percentage points
- inhibition of the specific percentage cytotoxicity (HCT8 tumour cells [6]; antibody 10 ng/ml, with HCT8, dexamethasone up to 1.0, healthy test subjects (FIG. 10A)): approximately 15 percentage points
- specific percentage cytotoxicity (HCT8 tumour cells [6]; antibody 10 ng/ml, with HCT8, with dexamethasone, healthy test subjects): ~41%
- inhibition of the cytotoxicity (HCT8 tumour cells [6]; antibody 100 ng/ml, dexamethasone, patients with gastrointestinal tumours (FIG. 10D)): approximately 27 percentage points
- inhibition of the specific percentage cytotoxicity (HCT8 tumour cells [6]; antibody 100 ng/ml, with HCT8, dexamethasone up to 1.0, healthy test subjects (FIG. 10B)): about 30 percentage points
- specific percentage cytotoxicity (HCT8 tumour cells [6]; antibody 100 ng/ml, with HCT8, with dexamethasone, healthy test subjects): ~50%
- cytotoxicity (HCT8 tumour cells [6]; antibody 100 ng/ml, with dexamethasone, patients with gastrointestinal tumours): ~51%
- inhibition of the cytotoxicity (HCT8 tumour cells [6]; antibody 100 ng/ml, without contact with HCT8, dexamethasone, healthy test subjects): approximately 10 percentage points
- inhibition of the specific percentage cytotoxicity (HCT8 tumour cells [6]; antibody 1000 ng/ml, with HCT8, dexamethasone up to 1.0, healthy test subjects (FIG. 10C)): about 20 percentage points
- specific percentage cytotoxicity (HCT8 tumour cells [6]; antibody 1000 ng/ml, with HCT8, with dexamethasone, healthy test subjects): ~67%
- inhibition of the cytotoxicity (HCT8 tumour cells [6]; antibody 1000 ng/ml, without contact with HCT8, dexamethasone, healthy test subjects): about 2 percentage points
